Experimental data taken from patent publication US11555212B2, “Process for the production of sulfated phenolic compounds using modified Escerichia coli” (CysBio ApS, priority 2016, dated 2023).

Assays:
SULT1A1 rat = molecular target: T1, SULT1A1 rat (Rattus norvegicus, UniProt P17988); experiment: Titers of zosteric acid in Saccharomyces cerevisiae expressing a sulfotransferase; assay type: cell-based; conditions: S. cerevisiae CEN.PK102-5B, modified Delft medium, 10 mM p-coumaric acid, overnight 30° C.
T1 construct: expressed in transfected cells; host or cells: Saccharomyces cerevisiae CEN.PK102-5B (plasmids pCBJ283, pCBJ284)
Experimental: (§1) The concentration of p-courmaric acid (pHCA) and zosteric acid in the supernatant was quantified by high performance liquid chromatography (HPLC) and compared to chemical standards. HPLC was done on a Thermo setup using a HS-F5 column and mobile phases: 5 mM ammonium formate pH 4.0 (A) and acetonitrile (B) at 1.5 mL min-1, using a gradient elution starting at 5% B. From 0.5 min after injection to 7 min, the fraction of B increased linearly from 5% to 60%, and between 9.5 min and 9.6 the fraction of B decreased back to 5%, and remaining there until 12 min. pHCA and zosteric acid were quantified by measuring absorbance at 277 nm.
The gene encoding aryl sulfotransferase SULT1A (Example 1) was cloned after a TEF1 promoter into an episomal plasmid with a 2-micron origin of replication as follows. The gene was amplified by PCR using primers CBJP633 and CBJP634. Alternatively, the gene was codon-optimized for E. coli and synthesized by GeneArt and amplified by primers CBJP635 and CBJP636. The TEF1 promoter (Jensen et al., 2014, FEMS Yeast Res 14: 238-248) was amplified by PCR using the primers PTEF1_fw and PTEF1_rv. Plasmid pCfB132 (Jensen et al., supra) was digested by restriction enzymes AsiSI and Nt.Bsml. […]

E. coli MG1655 = experiment: Toxicity of unsulfated or sulfated product: growth rates of E. coli; conditions: M9 minimal media, 0.2% glucose, pH 7, 37° C.; pHCA 10-40 mM; zosteric acid 20 mM or 40 mM
Experimental: E. coli MG1655 was grown in chemically defined M9 minimal media with 0.2% glucose as a carbon source without further addition or with the additions of either 10 mM, 20 mM, 25 mM, 30 mM, 35 mM or 40 mM p-coumaric acid (pHCA), or with 20 mM or 40 mM of the sulfate ester of pHCA (zosteric acid). All media preparations had been adjusted to pH 7. Cells were grown at 37° C. with 250 rpm shaking in an orbital shaker. The growth rates were examined by following the optical density at 600 nm.

SULT1A1 human = molecular target: T2, SULT1A1 human (Homo sapiens, UniProt P50225, V223M); experiment: Percent conversion of substrates by E. coli expressing a sulfotransferase; assay type: cell-based; conditions: E. coli BL21(DE3)pLysS expressing SULT1A1 human; M9; pHCA 100 μM, resveratrol 95 μM or kaempferol 87 μM; overnight 37° C.
T2 construct: expressed in transfected cells; host or cells: E. coli BL21(DE3)pLysS
Experimental: as §1
(§2) Different sulfotransferases were examined for their substrate specificities against three substrates. We tested the sulfotransferases mentioned in example 1, as well as additional ones. The genes encoding these were cloned as described in example 1 using the primers shown in the table below from cDNA libraries of the respective organisms, except for the SULT1A1 from rat (Rattus norvegicus) codon-optimized for E. coli (described above). The resulting vectors were transformed into BL21(DE3)pLysS.
(§3) The resulting strains were grown in M9 medium containing either 100 μM pHCA, 95 μM resveratrol or 87 μM kaempferol. The cultures were grown overnight at 37° C., 300 rpm. The following day the supernatants were isolated and examined by HPLC as described in example 1.

[1] = tested on: SULT1E1 Gallus gallus domesticus; experiment: as above; assay type: cell-based; conditions: E. coli BL21(DE3)pLysS expressing SULT1E1 Gallus gallus domesticus; M9; pHCA 100 μM, resveratrol 95 μM or kaempferol 87 μM; overnight 37° C.
Experimental: as §1, §2, §3

[2] = molecular target: T3, SULT1A1 Canis lupus familiaris (Canis lupus familiaris, UniProt Q29476); experiment: as above; assay type: cell-based; conditions: E. coli BL21(DE3)pLysS expressing SULT1A1 Canis lupus familiaris; M9; pHCA 100 μM, resveratrol 95 μM or kaempferol 87 μM; overnight 37° C.
T3 construct: 1, 3, 4, 5, and 6 were cloned amplified from liver tissue cDNA; expressed in transfected cells; host or cells: E. coli BL21(DE3)pLysS
Experimental: as §1, §2, §3

T1 sequence (P17988 whole entry): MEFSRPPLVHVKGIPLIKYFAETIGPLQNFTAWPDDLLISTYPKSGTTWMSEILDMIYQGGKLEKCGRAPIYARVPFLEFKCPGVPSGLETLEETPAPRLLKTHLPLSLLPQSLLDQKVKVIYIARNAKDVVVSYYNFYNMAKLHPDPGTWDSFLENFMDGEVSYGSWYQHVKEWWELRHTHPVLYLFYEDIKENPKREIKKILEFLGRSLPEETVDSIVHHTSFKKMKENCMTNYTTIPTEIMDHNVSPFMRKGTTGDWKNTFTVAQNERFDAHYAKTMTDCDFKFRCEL
T2 sequence (P50225 whole entry V223M): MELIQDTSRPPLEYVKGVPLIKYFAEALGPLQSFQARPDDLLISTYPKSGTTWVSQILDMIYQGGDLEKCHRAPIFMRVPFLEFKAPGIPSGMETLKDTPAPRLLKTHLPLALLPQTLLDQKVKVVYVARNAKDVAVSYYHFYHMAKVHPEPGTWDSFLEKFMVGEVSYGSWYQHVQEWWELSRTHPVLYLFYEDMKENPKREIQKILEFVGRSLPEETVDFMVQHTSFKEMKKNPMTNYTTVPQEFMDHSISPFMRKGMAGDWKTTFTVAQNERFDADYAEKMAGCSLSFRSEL
T3 sequence (Q29476 whole entry): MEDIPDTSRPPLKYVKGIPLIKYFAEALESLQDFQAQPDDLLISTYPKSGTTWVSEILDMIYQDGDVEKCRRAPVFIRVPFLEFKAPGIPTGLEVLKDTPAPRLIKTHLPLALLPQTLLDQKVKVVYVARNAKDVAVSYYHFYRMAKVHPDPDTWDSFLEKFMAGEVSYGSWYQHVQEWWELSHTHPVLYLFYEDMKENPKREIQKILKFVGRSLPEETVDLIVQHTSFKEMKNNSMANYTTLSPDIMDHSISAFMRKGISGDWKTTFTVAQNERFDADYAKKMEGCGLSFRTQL

SMILES: O=C(O)/C=C/c1ccc(OS(=O)(=O)O)cc1 [Zosteric acid, zosteric acid]
- μM ZA (averages and standard deviations of replicate experiments) (SULT1A1 rat; SULT1A1 rat (codon optimized for E. coli)): 46.2 ± 3.5 µM
- μM ZA (averages and standard deviations of replicate experiments) (SULT1A1 rat; SULT1A1 rat (native)): 37.8 ± 5.7 µM

SMILES: O=C(O)/C=C/c1ccc(O)cc1 [pHCA, p-coumaric acid]
- Toxicity to the cells (growth rates in exponential growth phase, OD 600 nm, FIG. 4) (E. coli MG1655): toxic to the cells
- Percent conversion of the substrate (SULT1A1 human): 39%
- Percent conversion of the substrate [1]: 17%
- Percent conversion of the substrate [2]: 34%
